In patent US20170224664A1, “POWDER ORAL SUSPENSION FORMULATIONS OF ANTIBACTERIAL AGENTS” (Cempra Pharmaceuticals, Inc., priority 2014, published 2017):
Converted amounts (≈) assume the structure as drawn.

Key:
[1] = Solubility of SOL at different pH; assay type: physicochemical
From the text: It has been discovered herein that the solubility of the compounds described herein generally decreases with increasing pH. […] It has also been discovered herein that at certain pH levels, a stable aqueous suspension of the compounds may be prepared. That suspension may also be prepared from a reconstitutable powder for oral suspension (POS). However, it has also been discovered that at certain limiting pH levels, a threshold amount of the compounds described herein are in solution and therefore such an oral suspension may have a bitter taste that compromises the efficacy thereof, such as due to poor patient compliance.

[2] = Stability of SOL in the presence of excipients; assay type: physicochemical
From the text: It has unexpectedly been discovered that compounds described herein, such as SOL, are unstable in the presence of high relative amounts of sucralose. In another embodiment, the weight/weight ratio of API, such as SOL to sucralose is greater than about 3, greater than about 4, greater than about 5, greater than about 6, greater than about 7, greater than about 8, greater than about 9, or greater than about 10. Illustratively, the POS and suspension formulations described herein include one of more souring agents. It has unexpectedly been discovered that compounds described herein, such as SOL, are unstable in the presence of high relative amounts of citric acid. In another embodiment, the weight/weight ratio of API, such as SOL to citric acid is greater than about 50, greater than about 60, greater than about 70, greater than about 80, or greater than about 90. In another embodiment, the POS and suspension formulations described herein are substantially free of, or free of citric acid.

SMILES: CC[C@H]1OC(=O)[C@@](C)(F)C(=O)[C@H](C)[C@@H](O[C@@H]2O[C@H](C)C[C@H](N(C)C)[C@H]2O)[C@](C)(OC)C[C@@H](C)C(=O)[C@H](C)[C@H]2N(CCCCn3cc(-c4cccc(N)c4)nn3)C(=O)O[C@]12C [SOL, solithromycin]
- solubility ([1]; pH 5.7, aqueous buffer): 68000 µg/mL (≈ 80500 µM)
- solubility ([1]; pH 6.2, aqueous buffer): 860 µg/mL (≈ 1020 µM)
- solubility ([1]; pH 7.5, aqueous buffer): 70 µg/mL (≈ 82.8 µM)
- stability in the presence of citric acid ([2]; high relative amounts of citric acid): unstable
- stability in the presence of sucralose ([2]; high relative amounts of sucralose): unstable
